Results: patent US20220054576A1, “PHARMACEUTICAL COMPOSITION COMPRISING EXTRACT FROM CAMELLIA JAPONICA AS ACTIVE INGREDIENT FOR PREVENTION AND TREATMENT OF VIRAL INFECTION” (HUSCION CO., LTD., priority 2019, published 2022)

Legend:
FluA H1N1 PR8 = assay: microbe, parasite or virus in culture; format: cell-based; conditions: Influenza A virus, 48 h; MDCK cells, CPE inhibition, 2 days; positive controls; read-out: Antiviral activity EC50 FluA H1N1 PR8
FluA H3N2 HongKong = assay: microbe, parasite or virus in culture; format: cell-based, influenza A virus; conditions: for EC50: Influenza A virus, H3N2, 48 h, MDCK cells, CPE inhibition, 2 days, positive controls, read-out: Antiviral activity EC50 FluA H3N2 HongKong
in vitro = conditions: dog
FluB Lee = assay: Cytopathic effect (CPE) inhibition test, Flu B Lee; conditions: read-out: Antiviral activity EC50 FluB Lee, MDCK cells, 2 days, positive controls

Row | Compound | EC50 (FluA H1N1 PR8) [µM] | Selectivity index FluA H3N2 HongKong (FluA H3N2 HongKong) | EC50 (FluA H3N2 HongKong) [µM] | CC50 (in vitro) [µM] | EC50 (FluB Lee) [µM]
1 | NC12CC3CC(CC(C3)C1)C2 [AMT, amantadine] | > 100 | >43.5 | 2.3 | > 100 | > 100
2 | NC(=O)c1ncn([C@@H]2O[C@H](CO)[C@@H](O)[C@H]2O)n1 [RBV, ribavirin] | 29.9 | – | 13.4 | – | 19.6
